Assay results: patent publication US9833520B2, “Labeled, non-peptidic, multivalent integrin antagonist compounds; methods for synthesis and uses thereof” (The Methodist Hospital Research Institute, priority 2011, dated 2017)
Entries after “also recorded” stand apart in the source; their conditions may differ.

System: U-87 xenograft tumors
Test: In vivo and ex vivo NIR fluorescence imaging of U-87 xenograft tumor-bearing mice
Details: co-administered with 10 nmol bivalent-IA-Cy5.5; 2, 4, 7, 24, 48 hrs
Experimental: U-87 MG Xenograft Model, Animal procedures were performed according to approved protocols. Female athymic nude mice (nu/nu), obtained from Charles River Laboratories, Inc. (Cambridge, Mass., USA) at 4-6 weeks of age, were injected subcutaneously in the right rear thigh with 1×10^7 U-87 MG cells suspended in 100 μL of phosphate-buffered saline (PBS). The cancer cells were harvested from sub-confluent cultures with 0.25% trypsin. Trypsinization was stopped with DMEM containing 10% FBS, after which the cells were washed once in serum-free medium and resuspended in PBS. Trypan blue exclusion was performed to ensure >90% cell viability. The tumor bearing mice were subjected to in vivo imaging studies when the tumors reached 0.4-0.6 cm in diameter.
In vivo Fluorescence Imaging of Tumors. ˜3×10^6 U-87 cells were implanted bilaterally in the posterior flanks of immunocompromised (nu/nu) mice and grown to ˜4 to 6 mm in diameter. Imaging was carried out in groups of five mice. After palpable masses were detected, animals were manually restrained and imaging probes were intravenously administered (lateral tail vein) using a 30-Ga needle via aseptic technique. Free Cy5.5 was prepared by dissolving the same Cy5.5NHS ester used for labeling the bivalent IA (GE Healthcare, Piscatway, N.J., USA) in phosphate buffered saline (PBS), pH 7.4 overnight at 4° C. Stock concentration of free Cy5.5 was measured optically using the molar extinction coefficient of 250000M-1 cm-1 using a UV-visible spectrophotometer at the maximum absorbance wavelength (675 nm) as recommended by the manufacturer. The bivalent-IA-Cy5.5 was weighed and confirmed by spectrophotometric measurement. Appropriate dilutions of each probe were made in PBS, pH 7.4, and each was filter sterilized (0.2-μm) immediately prior to use. All animals weighed between 18 and 20 g, and each received 10 nmol of imaging probe (in a total volume of 100 μL). Fluorescence imaging was performed with a small animal-dedicated optical imaging system (Xenogen/Caliper IVIS-200, Mountain View, Calif., USA) under continuous 1.5-2.0% isoflurane delivered through the integrated anesthesia nosecone system. At 2-, 4-, 7-, 24-, and 48-hrs' post-injection, images were acquired with the surface of the tissue of interest (tumor) approximating a perpendicular viewing angle relative to the camera line of sight; this viewing angle was also used for normal tissue selection.
For determining tumor contrast, mean fluorescence intensities of the tumor area (T) defined as radiance (photons/sec/cm2/sr) at the right rear leg of the animal and of the area (N) at the right flank (normal tissue) were calculated by region-of-interest (ROI) analysis using the corresponding photograph of each image acquisition dataset to identify the tumor region. Pre-injection imaging was also performed to determine baseline autofluorescence. For competitive inhibition studies, mice (n=3) were co-injected with 500 nmol bivalent IA and 10 nmol of imaging probe (bivalent-IA-Cy5.5) following the same procedure described above. Free Cy5.5 studies were performed in the same manner following the intravenous injection of 10 nmol. For ex vivo biodistribution imaging, two tumor-bearing mice were imaged 24 hrs post injection of bivalent-IA-Cy5.5 and thereafter euthanized per IACUC protocol (CO2 and cervical dislocation). Tumor and major internal organs (heart, lung, liver, spleen, gastrointestinal tract, and kidneys) were harvested, weighed, and imaged against a black paper background. All image acquisition parameters were as follows: epi-illumination; Cy5.5 Em/Ex; Bin: (HR)4, FOV: 12.9; f2; 0.2 sec.

NC(CCCCCC(=O)NCCS(=O)(=O)N[C@@H](CNC(=O)c1ccc(OCCNC2=NCCCN2)cc1)C(=O)O)C(=O)NCCS(=O)(=O)N[C@@H](CNC(=O)c1ccc(OCCNC2=NCCCN2)cc1)C(=O)O (stereo partly shown) [bivalent IA]
competitive inhibition of bivalent-IA-Cy5.5 tumor fluorescence signal: Significant blocking of tumor fluorescence signal; also recorded: reduced at all timepoints measured
